Results on nine compounds are retold here after patent US20240158446A1, “CYCLIC COMPOUND HAVING SELECTIVE INHIBITORY ACTION ON KRAS OVER HRAS AND NRAS” (CHUGAI SEIYAKU KABUSHIKI KAISHA, priority 2021, published 2024).

The target in experiment [1] is GDP-bound HRAS wild-type protein (Homo sapiens, UniProt P01112). The experiment is described as follows: Binding to HRAS by surface plasmon resonance (SPR), Single Cycle Kinetics. The conditions noted are these: for HRAS/KRAS (ratio of KD value for HRAS to KD value for KRAS): SPR, GDP-bound HRAS wild-type protein vs GDP-bound KRAS wild-type protein. (In general: In SPR one partner is held on a chip, and binding of the other changes the refractive index at the surface.)
GDP-bound HRAS wild-type protein, sequence (P01112 whole entry): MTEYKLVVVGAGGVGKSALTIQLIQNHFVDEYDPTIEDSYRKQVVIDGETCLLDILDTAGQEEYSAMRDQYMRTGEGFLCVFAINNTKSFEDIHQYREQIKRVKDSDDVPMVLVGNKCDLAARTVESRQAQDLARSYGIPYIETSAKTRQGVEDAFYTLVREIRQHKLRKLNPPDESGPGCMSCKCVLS

For experiment [2], the system named is human lung cancer strain NCI-H441.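 Note: cell proliferation inhibition after four days measured by CellTiter-Glo.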
For experiment [3], the target named is GDP-bound KRAS wild-type protein (Homo sapiens, UniProt P01116). The experiment is described as follows: Binding to KRAS by surface plasmon resonance (SPR), Single Cycle Kinetics. The conditions noted are these: GDP-bound KRAS wild-type protein, read-out: KRAS KD.
GDP-bound KRAS wild-type protein, sequence (P01116 whole entry): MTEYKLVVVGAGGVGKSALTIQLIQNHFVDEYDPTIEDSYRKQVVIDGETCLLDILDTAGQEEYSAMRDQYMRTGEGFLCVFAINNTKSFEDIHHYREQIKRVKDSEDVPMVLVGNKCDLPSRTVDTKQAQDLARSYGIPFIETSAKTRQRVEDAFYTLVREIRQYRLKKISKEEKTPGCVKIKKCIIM
For experiment [4], the target named is GDP-bound NRAS wild-type protein (Homo sapiens, UniProt P01111). The experiment is described as follows: Binding to NRAS by surface plasmon resonance (SPR), Single Cycle Kinetics. The conditions noted are these: for NRAS/KRAS (ratio of KD value for NRAS to KD value for KRAS): SPR, GDP-bound NRAS wild-type protein vs GDP-bound KRAS wild-type protein.
GDP-bound NRAS wild-type protein, sequence (P01111 whole entry): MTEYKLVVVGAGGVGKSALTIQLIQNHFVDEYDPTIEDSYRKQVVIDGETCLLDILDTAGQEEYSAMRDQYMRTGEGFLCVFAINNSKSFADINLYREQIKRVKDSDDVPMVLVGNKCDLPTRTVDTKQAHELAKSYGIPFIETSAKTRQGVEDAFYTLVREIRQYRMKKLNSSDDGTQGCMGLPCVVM
Where [5] appears, read: SPR, Single Cycle Kinetics, 1:1 binding model.

Read-outs that look alike come from different tables or passages of the source.

Regarding `CCOC[C@H]1C(=O)N[C@@H]([C@@H](C)CC)C(=O)N2CCC[C@H]2C(=O)N(C)[C@H]2C/C=C\CCN(C2=O)[C@@H](CC2CCC(F)(F)CC2)C(=O)N(C)CC(=O)N[C@@H](CCc2ccc(C(F)(F)F)c(OC)c2)C(=O)N2C[C@H](OCC)C[C@H]2C(=O)N(C)C2(CCC2)C(=O)N(C)[C@@H](C(CC)CC)C(=O)N(C)[C@H](C(=O)N(C)C)CC(=O)N1C` [PP2355], the “HRAS/KRAS (ratio of KD value for HRAS to KD value for KRAS)” value in experiment [1] is “A (a compound having 10 or more and less than 20 is denoted as A)”. For the same compound, in experiment [2], the IC50 (as a rule, the midpoint of a concentration-inhibition curve) worked out at 103 nM. The Kd (usually the equilibrium constant for the complex coming apart) in experiment [3] (SPR, Single Cycle Kinetics) is 3.9 nM. In experiment [4], the “NRAS/KRAS (ratio of KD value for NRAS to KD value for KRAS)” value is given as “AA (a compound having 20 or more is denoted as AA)”.
With `CCO[C@@H]1C[C@H]2C(=O)NC3(CCC3)C(=O)N(C)[C@@H](C3CCCC3)C(=O)N(C)[C@H](C(=O)N(C)C)CC(=O)N(C)[C@@H](CC(C)C)C(=O)N[C@@H]([C@@H](C)CC)C(=O)N(C)CC(=O)N(C)[C@H]3C/C=C\CCN(C3=O)[C@@H](Cc3ccc(F)cc3C)C(=O)N(C)CC(=O)N[C@@H](CCc3cc(F)c(Cl)c(F)c3)C(=O)N2C1` [PP1481], the “HRAS/KRAS (ratio of KD value for HRAS to KD value for KRAS)” value in experiment [1] (KD ratio class) is “B (a compound having 3 or more and less than 10 is denoted as B)”. This compound also had an IC50 in experiment [2] of 14.8 nM. In experiment [3] (setting [5]), the Kd is 1.2 nM. In experiment [4] (KD ratio class), the “NRAS/KRAS (ratio of KD value for NRAS to KD value for KRAS)” value was “A (a compound having 10 or more and less than 20 is denoted as A)”.
Consider `CCO[C@@H]1C[C@H]2C(=O)NC3(CCC3)C(=O)N(C)[C@@H](C(CC)CC)C(=O)N(C)[C@H](C(=O)N(C)C)CC(=O)N(C)[C@@H](CC3CC3)C(=O)N[C@@H]([C@@H](C)CC)C(=O)N(C)CC(=O)N(C)[C@H]3C/C=C\CCN(C3=O)[C@@H](CC3CCC(F)(F)CC3)C(=O)N(C)CC(=O)N[C@@H](CCc3cc(F)c(C(F)(F)F)c(F)c3)C(=O)N2C1` [PP1429], for which the “HRAS/KRAS (ratio of KD value for HRAS to KD value for KRAS)” value in experiment [1] (KD ratio class) was “A (a compound having 10 or more and less than 20 is denoted as A)”. In experiment [2], the 50% inhibitory concentration (IC50) was 38.7 nM. For the same compound, in experiment [3] (setting [5]), the Kd came to 0.52 nM. In addition, the “NRAS/KRAS (ratio of KD value for NRAS to KD value for KRAS)” value in experiment [4] (KD ratio class) was “AA (a compound having 20 or more is denoted as AA)”.
Regarding `CCO[C@@H]1C[C@H]2C(=O)NC3(CCC3)C(=O)N(C)[C@@H](C3CCCC3)C(=O)N(C)[C@H](C(=O)N(C)C)CC(=O)N(C)[C@@H](Cc3ccc(Cl)c(Cl)c3)C(=O)N[C@@H]([C@@H](C)CC)C(=O)N(C)CC(=O)N(C)[C@H]3CCCCCN(C3=O)[C@@H](Cc3ccc(F)cc3)C(=O)N(C)CC(=O)N[C@@H](CCc3cc(F)c(C(F)(F)F)c(F)c3)C(=O)N2C1` [PP1158], in experiment [1], the “HRAS/KRAS (ratio of KD value for HRAS to KD value for KRAS)” value is “B (a compound having 3 or more and less than 10 is denoted as B)”. Also, in experiment [2], half-maximal inhibition (IC50) required 57.5 nM. Besides, in experiment [3] (SPR, Single Cycle Kinetics), the Kd turned out to be 0.18 nM. Further, in experiment [4], the “NRAS/KRAS (ratio of KD value for NRAS to KD value for KRAS)” value was “B (a compound having 3 or more and less than 10 is denoted as B)”.
With `CCO[C@@H]1C[C@H]2C(=O)NC3(CCC3)C(=O)N(C)[C@@H](C3CCCC3)C(=O)N(C)[C@H](C(=O)N(C)C)CC(=O)N(C)[C@@H](CC)C(=O)N[C@@H]([C@@H](C)CC)C(=O)N(C)CC(=O)N(C)[C@H]3CCCCCN(C3=O)[C@@H](Cc3ccc(C(F)(F)F)cc3)C(=O)N(C)CC(=O)N[C@@H](CCc3ccc4sccc4c3)C(=O)N2C1` [PP0892], in experiment [1], the “HRAS/KRAS (ratio of KD value for HRAS to KD value for KRAS)” value was “B (a compound having 3 or more and less than 10 is denoted as B)”. Besides, the IC50 in experiment [2] turned out to be 53.6 nM. In experiment [3] (SPR, Single Cycle Kinetics), the Kd is 0.33 nM. Also, the “NRAS/KRAS (ratio of KD value for NRAS to KD value for KRAS)” value in experiment [4] is “B (a compound having 3 or more and less than 10 is denoted as B)”.
As for `CCO[C@@H]1C[C@H]2C(=O)NC3(CC(C)(C)C3)C(=O)N(C)[C@@H](C(CC)CC)C(=O)N(C)[C@H](C(=O)N(C)C)CC(=O)N(C)[C@@H](C(C)C)C(=O)N[C@@H]([C@@H](C)CC)C(=O)N(C)CC(=O)N(C)[C@H]3C/C=C\CCN(C3=O)[C@@H](CC3CCC(F)(F)CC3)C(=O)N(C)CC(=O)N[C@@H](CCc3ccc(C(F)(F)F)c(Cl)c3)C(=O)N2C1` [PP2492], the “HRAS/KRAS (ratio of KD value for HRAS to KD value for KRAS)” value in experiment [1] was “A (a compound having 10 or more and less than 20 is denoted as A)”. Besides, the IC50 in experiment [2] worked out at 76.7 nM. Moreover, the Kd in experiment [3] (SPR, Single Cycle Kinetics) was 2.4 nM. Also, the “NRAS/KRAS (ratio of KD value for NRAS to KD value for KRAS)” value in experiment [4] was “AA (a compound having 20 or more is denoted as AA)”.
Take `CCC[C@H]1C(=O)N[C@@H]([C@@H](C)CC)C(=O)N2CCC[C@H]2C(=O)N(C)[C@H]2C/C=C\CCN(C2=O)[C@@H](Cc2ccc(C)cc2)C(=O)N(C)CC(=O)N[C@@H](CCc2ccc(Cl)c(Cl)c2)C(=O)N2C[C@H](OCC)C[C@H]2C(=O)NC2(CC(C)(C)C2)C(=O)N(C)[C@@H](C(CC)CC)C(=O)N(C)[C@H](C(=O)N(C)C)CC(=O)N1C` [PP2638]: the “HRAS/KRAS (ratio of KD value with respect to GDP-bound HRAS wild-type protein to KD value with respect to KRAS)” value in experiment [1] (SPR KD ratio HRAS/KRAS, class symbols) was “A (a compound having 10 or more and less than 20 is denoted as A)”. The compound also had an IC50 in experiment [2] of 97 nM. Besides, in experiment [3] (SPR Single Cycle Kinetics, 1:1 binding model), the Kd is 2.5 nM. Besides, the “NRAS/KRAS (ratio of KD value with respect to GDP-bound NRAS wild-type protein to KD value with respect to KRAS)” value in experiment [4] (SPR KD ratio NRAS/KRAS, class symbols) is recorded as “AA (a compound having 20 or more is denoted as AA)”.
Turning to `CC[C@H](C)[C@@H]1NC(=O)[C@H](CC)N(C)C(=O)C[C@@H](C(=O)N(C)C)N(C)C(=O)[C@H](C2CCCC2)N(C)C(=O)C2(CCC2)NC(=O)[C@@H]2C[C@H](F)CN2C(=O)[C@H](CCc2cc(F)c(C(F)(F)F)c(F)c2)NC(=O)CN(C)C(=O)[C@H](Cc2ccc(C(F)(F)F)cc2)N2CC/C=C\C[C@@H](C2=O)N(C)C(=O)CN(C)C1=O` [PP1132, (2S,8S,12S,14S,20S,23S,27S,30S,36S,38Z)-20-cyclopentyl-8-[2-[3,5-difluoro-4-(trifluoromethyl)phenyl]ethyl]-27-ethyl-12-fluoro-N,N,4,19,22,26,32,35-octamethyl-30-[(1S)-1-methylpropyl]-3,6,9,15,18,21,25,28,31,34,42-undecaoxo-2-[[4-(trifluoromethyl)phenyl]methyl]spiro[1,4,7,10,16,19,22,26,29,32,35-undecazatricyclo[34.5.1.0^10,14]dotetracont-38-ene-17,1′-cyclobutane]-23-carboxamide], the “HRAS/KRAS (ratio of KD value for HRAS to KD value for KRAS)” value in experiment [1] was “B (a compound having 3 or more and less than 10 is denoted as B)”. In addition, in experiment [2], the IC50 worked out at 86.8 nM. Besides, the Kd in experiment [3] (SPR, Single Cycle Kinetics) stood at 0.066 nM. Also, in experiment [4], the “NRAS/KRAS (ratio of KD value for NRAS to KD value for KRAS)” value was “A (a compound having 10 or more and less than 20 is denoted as A)”.
For the compound `CC[C@H](C)[C@@H]1NC(=O)[C@H](CC)N(C)C(=O)C[C@@H](C(=O)N2CCOCC2)N(C)C(=O)[C@H](C2CCCC2)N(C)C(=O)C2(CCC2)NC(=O)[C@@H]2CCCN2C(=O)[C@H](CCc2cc(F)c(C(F)(F)F)c(F)c2)NC(=O)CN(C)C(=O)[C@H](Cc2ccc(C(F)(F)F)cc2)N2C[C@H](C)[C@H](C)C[C@@H](C2=O)N(C)C(=O)CN(C)C1=O` [PP1366], the “HRAS/KRAS (ratio of KD value for HRAS to KD value for KRAS)” value in experiment [1] (KD ratio class) is “B (a compound having 3 or more and less than 10 is denoted as B)”. In addition, the IC50 in experiment [2] was 14 nM. The dissociation constant (Kd) in experiment [3] (setting [5]) is 0.11 nM. Also, in experiment [4] (KD ratio class), the “NRAS/KRAS (ratio of KD value for NRAS to KD value for KRAS)” value was “A (a compound having 10 or more and less than 20 is denoted as A)”.
